Laboratory results from article PMC10178848, “Modulating fast skeletal muscle contraction protects skeletal muscle in animal models of Duchenne muscular dystrophy” (The Journal of Clinical Investigation, 2023).
Like-named read-outs stand apart in the source and are kept apart here.

Experiments:
[1] = molecular target: mouse gastrocnemius myofibrils; assay: Myofibril ATPase, mouse gastrocnemius; type: biochemical; conditions: 21% IIa, 15% IIx, 56% IIb
[2] = test system: psoas S1 (fast skeletal muscle myosin); assay: Stopped-flow analysis of Pi release from myosin; type: biochemical, rabbit; design: dose or concentration left out as unconfirmed; conditions: preincubation with myosin 30 minutes prior to actin
Description: The rate of Pi release from myosin with actin utilized a fluorescent phosphate binding protein, as described previously ([63]). Experiments were performed in 10 mM MOPS, pH 7.0; 5 mM KCL; 1 mM EGTA; 1 mM DTT; 0.5 mM MgCl2. ATP and ADP were removed by incubation with apyrase ([64]). Prior to mixing with 1 mM ATP in a stopped flow device, compound was incubated with 6 μM psoas S1 at 25°C for 30 minutes.

ABL1-phosphorylated = molecular target: T1, ABL1-phosphorylated (Homo sapiens, UniProt P00519); assay: KINOMEscan scanEDGE; type: binding; conditions: 20 uM
T1 construct: purchased Eurofins DiscoverX (KINOMEscan; SAFETYscan E/IC50 ELECT)

ALK = molecular target: T2, ALK (Homo sapiens, UniProt Q9UM73); assay: KINOMEscan scanEDGE; type: binding; conditions: 20 uM
T2 construct: purchased Eurofins DiscoverX (KINOMEscan; SAFETYscan E/IC50 ELECT)

CDK2 = molecular target: T3, CDK2 (Homo sapiens, UniProt P24941); assay: KINOMEscan scanEDGE; type: binding; conditions: 20 uM
T3 construct: purchased Eurofins DiscoverX (KINOMEscan; SAFETYscan E/IC50 ELECT)

EGFR = molecular target: T4, EGFR (Homo sapiens, UniProt P00533); assay: KINOMEscan scanEDGE; type: binding; conditions: 20 uM
T4 construct: purchased Eurofins DiscoverX (KINOMEscan; SAFETYscan E/IC50 ELECT)

EGFR(L858R) = molecular target: T5, EGFR(L858R) (Homo sapiens, UniProt P00533, L858R); assay: KINOMEscan scanEDGE; type: binding; conditions: 20 uM
T5 construct: purchased Eurofins DiscoverX (KINOMEscan; SAFETYscan E/IC50 ELECT)

ERBB2 = molecular target: T6, ERBB2 (Homo sapiens, UniProt P04626); assay: KINOMEscan scanEDGE; type: binding; conditions: 20 uM
T6 construct: purchased Eurofins DiscoverX (KINOMEscan; SAFETYscan E/IC50 ELECT)

IKK-beta = molecular target: T7, IKK-beta (Homo sapiens, UniProt O14920); assay: KINOMEscan scanEDGE; type: binding; conditions: 20 uM
T7 construct: purchased Eurofins DiscoverX (KINOMEscan; SAFETYscan E/IC50 ELECT)

PLK4 = molecular target: T8, PLK4 (Homo sapiens, UniProt O00444); assay: KINOMEscan scanEDGE; type: binding; conditions: 20 uM
T8 construct: purchased Eurofins DiscoverX (KINOMEscan; SAFETYscan E/IC50 ELECT)

ADORA2A = molecular target: T9, ADORA2A (Homo sapiens, UniProt P29274); assay: SAFETYscan Calcium Flux; type: cell-based; design: dose or concentration left out as unconfirmed
T9 construct: purchased Eurofins DiscoverX (KINOMEscan; SAFETYscan E/IC50 ELECT)
T9 sequence (P29274 whole entry): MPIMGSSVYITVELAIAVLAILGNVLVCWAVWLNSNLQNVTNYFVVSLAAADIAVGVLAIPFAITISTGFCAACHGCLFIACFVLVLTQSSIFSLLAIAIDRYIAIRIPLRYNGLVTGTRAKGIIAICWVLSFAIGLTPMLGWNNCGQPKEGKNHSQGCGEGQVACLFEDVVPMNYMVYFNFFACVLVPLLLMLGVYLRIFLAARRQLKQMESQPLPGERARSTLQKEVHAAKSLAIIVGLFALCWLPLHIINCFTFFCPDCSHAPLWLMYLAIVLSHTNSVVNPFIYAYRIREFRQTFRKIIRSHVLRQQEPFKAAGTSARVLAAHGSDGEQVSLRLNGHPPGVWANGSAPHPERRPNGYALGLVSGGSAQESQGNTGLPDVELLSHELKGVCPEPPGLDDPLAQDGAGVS
Description: (§1) The specificity of EDG-5506 for fast skeletal myosin over other, unrelated proteins was confirmed using two off-target binding and activity screens. […] A second off-target panel (SAFETYscan E/IC50 ELECT, Eurofins DiscoverX) tested in vitro enzyme activity against 78 proteins, including GPCR, ion channel, kinases, nuclear hormone receptors, and transporters. In all assays, the IC50 of EDG-5506 was more than 10 μM (Supplemental Data File 1).

ADRA1A = molecular target: T10, ADRA1A (Homo sapiens, UniProt P35348); assay: SAFETYscan Calcium Flux; type: cell-based; design: dose or concentration left out as unconfirmed
T10 construct: purchased Eurofins DiscoverX (KINOMEscan; SAFETYscan E/IC50 ELECT)
T10 sequence (P35348 whole entry): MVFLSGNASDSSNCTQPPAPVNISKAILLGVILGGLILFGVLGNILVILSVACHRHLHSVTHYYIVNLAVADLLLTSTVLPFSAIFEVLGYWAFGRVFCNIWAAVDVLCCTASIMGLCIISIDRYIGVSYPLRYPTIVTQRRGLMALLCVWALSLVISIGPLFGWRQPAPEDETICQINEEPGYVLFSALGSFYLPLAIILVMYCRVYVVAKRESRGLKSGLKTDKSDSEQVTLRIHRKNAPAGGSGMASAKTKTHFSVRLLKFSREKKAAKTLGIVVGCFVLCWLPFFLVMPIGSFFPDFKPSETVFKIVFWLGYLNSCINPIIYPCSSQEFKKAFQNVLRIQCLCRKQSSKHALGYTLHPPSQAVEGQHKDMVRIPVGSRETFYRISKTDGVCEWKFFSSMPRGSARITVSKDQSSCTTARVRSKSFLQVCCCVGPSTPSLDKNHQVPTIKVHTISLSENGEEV
Description: as §1

AVPR1A = molecular target: T11, AVPR1A (Homo sapiens, UniProt P37288); assay: SAFETYscan Calcium Flux; type: cell-based; design: dose or concentration left out as unconfirmed
T11 construct: purchased Eurofins DiscoverX (KINOMEscan; SAFETYscan E/IC50 ELECT)
T11 sequence (P37288 whole entry): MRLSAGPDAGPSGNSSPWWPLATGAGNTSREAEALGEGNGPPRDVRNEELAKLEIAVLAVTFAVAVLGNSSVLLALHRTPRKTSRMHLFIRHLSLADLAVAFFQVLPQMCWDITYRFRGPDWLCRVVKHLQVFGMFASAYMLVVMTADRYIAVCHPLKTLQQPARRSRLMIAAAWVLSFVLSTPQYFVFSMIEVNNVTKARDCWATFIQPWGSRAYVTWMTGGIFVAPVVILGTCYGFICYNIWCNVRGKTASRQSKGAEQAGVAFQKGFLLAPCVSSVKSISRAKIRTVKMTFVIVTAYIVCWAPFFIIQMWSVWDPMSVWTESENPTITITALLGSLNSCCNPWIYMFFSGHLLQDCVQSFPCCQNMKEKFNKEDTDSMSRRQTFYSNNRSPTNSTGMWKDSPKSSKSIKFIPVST
Description: as §1

CCKAR = molecular target: T12, CCKAR (Homo sapiens, UniProt P32238); assay: SAFETYscan Calcium Flux; type: cell-based; design: dose or concentration left out as unconfirmed
T12 construct: purchased Eurofins DiscoverX (KINOMEscan; SAFETYscan E/IC50 ELECT)
T12 sequence (P32238 whole entry): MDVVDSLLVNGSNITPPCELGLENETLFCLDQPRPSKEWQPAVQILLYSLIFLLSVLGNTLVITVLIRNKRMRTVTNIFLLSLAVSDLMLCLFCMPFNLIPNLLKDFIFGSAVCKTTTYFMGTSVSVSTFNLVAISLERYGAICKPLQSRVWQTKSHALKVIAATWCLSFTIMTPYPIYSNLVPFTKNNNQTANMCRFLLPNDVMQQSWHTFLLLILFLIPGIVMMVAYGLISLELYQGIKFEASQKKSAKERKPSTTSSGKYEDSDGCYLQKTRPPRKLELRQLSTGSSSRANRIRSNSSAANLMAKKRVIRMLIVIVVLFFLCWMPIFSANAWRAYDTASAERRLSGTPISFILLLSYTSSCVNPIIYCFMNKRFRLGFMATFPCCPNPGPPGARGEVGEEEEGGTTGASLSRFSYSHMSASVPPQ
Description: as §1

CHRM1 = molecular target: T13, CHRM1 (Homo sapiens, UniProt P11229); assay: SAFETYscan Calcium Flux; type: cell-based; design: dose or concentration left out as unconfirmed
T13 construct: purchased Eurofins DiscoverX (KINOMEscan; SAFETYscan E/IC50 ELECT)
T13 sequence (P11229 whole entry): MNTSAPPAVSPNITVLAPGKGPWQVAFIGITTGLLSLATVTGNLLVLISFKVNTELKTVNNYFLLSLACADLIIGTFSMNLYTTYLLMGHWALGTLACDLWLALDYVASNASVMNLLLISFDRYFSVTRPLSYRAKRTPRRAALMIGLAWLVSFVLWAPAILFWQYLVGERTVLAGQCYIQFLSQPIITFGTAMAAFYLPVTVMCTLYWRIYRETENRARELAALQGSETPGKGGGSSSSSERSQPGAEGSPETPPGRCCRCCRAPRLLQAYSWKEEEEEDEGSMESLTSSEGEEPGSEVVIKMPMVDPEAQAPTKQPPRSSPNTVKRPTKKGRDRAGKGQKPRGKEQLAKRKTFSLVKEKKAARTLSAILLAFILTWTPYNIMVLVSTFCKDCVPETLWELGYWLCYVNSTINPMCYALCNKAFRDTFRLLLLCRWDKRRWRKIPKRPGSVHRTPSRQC
Description: as §1

CHRM3 = molecular target: T14, CHRM3 (Homo sapiens, UniProt P20309); assay: SAFETYscan Calcium Flux; type: cell-based; design: dose or concentration left out as unconfirmed
T14 construct: purchased Eurofins DiscoverX (KINOMEscan; SAFETYscan E/IC50 ELECT)
T14 sequence (P20309 whole entry): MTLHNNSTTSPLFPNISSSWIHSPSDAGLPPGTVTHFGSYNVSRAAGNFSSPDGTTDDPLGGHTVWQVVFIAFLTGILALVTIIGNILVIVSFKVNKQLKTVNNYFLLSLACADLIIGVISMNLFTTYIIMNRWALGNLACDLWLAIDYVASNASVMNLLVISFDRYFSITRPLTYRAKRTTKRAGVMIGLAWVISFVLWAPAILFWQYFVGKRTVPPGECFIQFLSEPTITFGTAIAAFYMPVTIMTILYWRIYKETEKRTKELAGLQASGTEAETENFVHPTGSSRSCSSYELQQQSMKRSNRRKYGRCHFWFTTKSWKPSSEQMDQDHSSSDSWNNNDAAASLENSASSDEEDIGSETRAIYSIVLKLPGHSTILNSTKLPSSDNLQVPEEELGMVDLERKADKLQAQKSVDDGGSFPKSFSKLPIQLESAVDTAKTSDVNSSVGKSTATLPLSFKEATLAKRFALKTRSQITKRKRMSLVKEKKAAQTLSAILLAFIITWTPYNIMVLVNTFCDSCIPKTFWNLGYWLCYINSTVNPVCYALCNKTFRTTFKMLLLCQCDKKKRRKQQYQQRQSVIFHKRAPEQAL
Description: as §1

EDNRA = molecular target: T15, EDNRA (Homo sapiens, UniProt P25101); assay: SAFETYscan Calcium Flux; type: cell-based; design: dose or concentration left out as unconfirmed
T15 construct: purchased Eurofins DiscoverX (KINOMEscan; SAFETYscan E/IC50 ELECT)
T15 sequence (P25101 21-427): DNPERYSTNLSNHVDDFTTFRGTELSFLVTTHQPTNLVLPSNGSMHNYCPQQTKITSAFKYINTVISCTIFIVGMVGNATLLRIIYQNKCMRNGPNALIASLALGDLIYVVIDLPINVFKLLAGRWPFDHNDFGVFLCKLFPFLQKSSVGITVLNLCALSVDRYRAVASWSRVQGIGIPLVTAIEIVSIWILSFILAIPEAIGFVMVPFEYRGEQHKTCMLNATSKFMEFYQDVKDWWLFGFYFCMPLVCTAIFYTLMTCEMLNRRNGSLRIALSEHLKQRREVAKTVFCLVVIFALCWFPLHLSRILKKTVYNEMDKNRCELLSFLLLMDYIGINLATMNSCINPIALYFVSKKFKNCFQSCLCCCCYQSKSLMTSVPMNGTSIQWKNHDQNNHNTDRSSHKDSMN
Description: as §1

HRH1 = molecular target: T16, HRH1 (Homo sapiens, UniProt P35367); assay: SAFETYscan Calcium Flux; type: cell-based; design: dose or concentration left out as unconfirmed
T16 construct: purchased Eurofins DiscoverX (KINOMEscan; SAFETYscan E/IC50 ELECT)
T16 sequence (P35367 whole entry): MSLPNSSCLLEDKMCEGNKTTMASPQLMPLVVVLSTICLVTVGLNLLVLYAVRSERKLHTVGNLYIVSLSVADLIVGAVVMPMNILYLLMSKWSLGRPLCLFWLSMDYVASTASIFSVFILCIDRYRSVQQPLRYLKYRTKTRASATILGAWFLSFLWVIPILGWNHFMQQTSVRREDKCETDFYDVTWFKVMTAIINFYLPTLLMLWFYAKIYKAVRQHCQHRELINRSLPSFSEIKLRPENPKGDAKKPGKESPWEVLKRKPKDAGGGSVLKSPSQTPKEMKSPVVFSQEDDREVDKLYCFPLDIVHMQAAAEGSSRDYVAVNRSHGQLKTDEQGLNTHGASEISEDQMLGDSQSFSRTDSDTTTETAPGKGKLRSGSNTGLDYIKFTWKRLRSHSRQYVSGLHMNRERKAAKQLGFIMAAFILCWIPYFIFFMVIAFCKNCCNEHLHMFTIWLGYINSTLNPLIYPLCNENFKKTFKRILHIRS
Description: as §1

HTR2A = molecular target: T17, HTR2A (Homo sapiens, UniProt P28223); assay: SAFETYscan Calcium Flux; type: cell-based; design: dose or concentration left out as unconfirmed
T17 construct: purchased Eurofins DiscoverX (KINOMEscan; SAFETYscan E/IC50 ELECT)
T17 sequence (P28223 whole entry): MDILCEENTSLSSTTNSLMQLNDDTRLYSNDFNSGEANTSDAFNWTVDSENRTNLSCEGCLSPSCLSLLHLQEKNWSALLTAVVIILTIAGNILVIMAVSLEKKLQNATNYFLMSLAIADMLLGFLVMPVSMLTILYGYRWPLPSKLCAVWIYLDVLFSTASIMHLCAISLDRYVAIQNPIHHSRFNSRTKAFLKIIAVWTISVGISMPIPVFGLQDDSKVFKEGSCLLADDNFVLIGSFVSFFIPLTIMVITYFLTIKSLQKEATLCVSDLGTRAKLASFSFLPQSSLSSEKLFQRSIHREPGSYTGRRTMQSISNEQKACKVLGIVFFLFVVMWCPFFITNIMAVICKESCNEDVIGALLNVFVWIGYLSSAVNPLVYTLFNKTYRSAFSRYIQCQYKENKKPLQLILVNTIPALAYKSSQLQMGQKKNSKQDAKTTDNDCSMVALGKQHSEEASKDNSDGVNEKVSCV
Description: as §1

HTR2B = molecular target: T18, HTR2B (Homo sapiens, UniProt P41595); assay: SAFETYscan Calcium Flux; type: cell-based; design: dose or concentration left out as unconfirmed
T18 construct: purchased Eurofins DiscoverX (KINOMEscan; SAFETYscan E/IC50 ELECT)
T18 sequence (P41595 whole entry): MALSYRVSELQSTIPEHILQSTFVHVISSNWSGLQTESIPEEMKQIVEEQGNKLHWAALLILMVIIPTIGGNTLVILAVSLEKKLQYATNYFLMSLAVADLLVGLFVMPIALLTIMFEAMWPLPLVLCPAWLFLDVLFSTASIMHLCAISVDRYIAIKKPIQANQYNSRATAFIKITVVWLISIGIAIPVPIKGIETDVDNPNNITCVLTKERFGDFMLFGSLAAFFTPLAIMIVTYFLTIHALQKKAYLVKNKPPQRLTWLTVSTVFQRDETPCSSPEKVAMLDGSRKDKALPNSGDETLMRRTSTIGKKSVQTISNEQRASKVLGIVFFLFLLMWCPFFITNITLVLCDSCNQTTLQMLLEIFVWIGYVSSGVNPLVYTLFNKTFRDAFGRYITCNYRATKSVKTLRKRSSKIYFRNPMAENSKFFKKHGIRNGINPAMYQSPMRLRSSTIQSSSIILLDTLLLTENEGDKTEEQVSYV
Description: as §1

[3] = read-out: Max Response (%) (Agonist)
[4] = read-out: Max Response (%) (Antagonist)

O=c1ccc(-c2cnc(OCC(F)(F)F)nc2)nn1Cc1cncc(F)c1 [EDG-5506]
IC50 [1]: 400 nM
rate of Pi release from myosin with actin [2]: decreased the rate of Pi release
binding, % of control (ABL1-phosphorylated): 72 % of control
binding, % of control (ALK): 95 % of control
binding, % of control (CDK2): 100 % of control
binding, % of control (EGFR): 100 % of control
binding, % of control (EGFR(L858R)): 95 % of control
binding, % of control (ERBB2): 76 % of control
binding, % of control (IKK-beta): 94 % of control
binding, % of control (PLK4): 90 % of control
Emax (ADORA2A; [3]): 0%
Emax (ADORA2A; [4]): 0%
Emax (ADRA1A; [3]): 2.19%
Emax (ADRA1A; [4]): 18.5%
Emax (AVPR1A; [3]): 0%
Emax (AVPR1A; [4]): 0%
Emax (CCKAR; [3]): 1.03%
Emax (CCKAR; [4]): 5.54%
Emax (CHRM1; [3]): 0.16%
Emax (CHRM1; [4]): 0%
Emax (CHRM3; [3]): 2.48%
Emax (CHRM3; [4]): 2.14%
Emax (EDNRA; [3]): 0%
Emax (EDNRA; [4]): 0%
Emax (HRH1; [3]): 0%
Emax (HRH1; [4]): 25.2%
Emax (HTR2A; [3]): 3.31%
Emax (HTR2A; [4]): 0.4%
Emax (HTR2B; [3]): 5.88%
Emax (HTR2B; [4]): 2.49%
